Assay results from patent US20050171358A1 (priority 2002, published 2005).

Experiments:
[1] = test system: Phytophthora infestans; format: in vivo; conditions: 125 ppm, 200 L/10 a spray on tomato (5 leaf stage), inoculated next day; diseased area rates of third to fifth true leaves after 3 days in green house, graded by Table 5
[2] = test system: Pseudoperonospora cubensis; assay: Effect test for cucumber downy mildew (Evaluation Example 4); format: in vivo; conditions: 125 ppm, 200 L/10 a spray on cucumber (3 leaf stage), inoculated next day; diseased area rates of first and second true leaves after 3 days in green house, graded by Table 5
Experimental: The active ingredient compound was diluted with water containing 0.01% Tween 20 to have a concentration of 125 ppm. […] Next day, a zoosporangium suspension of Pseudoperonospora cubensis which was the causative fungus of cucumber downy mildew was sprayed to inoculate.

[3] = test system: Pyricularia oryzae; format: in vivo; conditions: 200 ppm spray on rice (Koshihikari, 3 leaf stage), inoculated next day; lesion numbers on third leaves after 7 days in green house, graded by Table 5
[4] = test system: Colletotrichum lagenarium; conditions: 200 ppm spray on cucumber (3 leaf stage), inoculated next day; lesion numbers on first and second leaves after 7 days in green house, graded by Table 5

| Structure (SMILES) | Evaluation (effect for tomato late blight) [1] | Evaluation (effect for cucumber downy mildew) [2] | Evaluation (effect for rice blast) [3] | Evaluation (effect for cucumber anthracnose) [4] |
| --- | --- | --- | --- | --- |
| COc1ccc(C(=O)NCc2cc(CN3Cc4ccccc4C3)no2)cc1 | 1 (21˜41) |  |  |  |
| O=C(COc1ccccc1)NCc1cc(CCl)no1 [I-65, N-[(3-chloromethyl-5-isoxazolyl)methyl]phenoxyacetamide] | 4 (1˜5) | 2 (11˜20) |  |  |
| O=C(Cc1ccccc1)NCc1cc(CCl)no1 [I-67, N-[(3-chloromethyl-5-isoxazolyl)methyl]phenylacetamide] | 2 (11˜20) |  |  |  |
| O=C(NCc1cc(CCl)no1)NC1CCCCC1 [II-105, 3-(3-chloromethyl-5-isoxazolyl)methyl-1-cyclohexylurea] | 5 (0) | 4 (1˜5) | 2 (11˜20) |  |
| O=C(NCc1cc(CCl)no1)NC1CCCC1 [II-107, 3-(3-chloromethyl-5-isoxazolyl)methyl-1-cyclopentylurea] | 4 (1˜5) | 2 (11˜20) |  |  |
| O=C(NCc1cc(CBr)no1)NC1CCCCC1 [II-111, 3-(3-bromomethyl-5-isoxazolyl)methyl-1-cyclohexylurea] | 5 (0) | 3 (6˜10) |  |  |
| O=C(NCc1cc(CI)no1)NC1CCCCC1 [II-115, 3-(3-iodomethyl-5-isoxazolyl)methyl-1-cyclohexylurea] | 3 (6˜10) | 1 (21˜41) | 3 (6˜10) | 2 (11˜20) |
| Cc1ccc(C(=O)NCc2cc(CCl)no2)cc1 [III-2, N-[(3-chloromethyl-5-isoxazolyl)methyl]-4-methylbenzamide] | 5 (0) | 5 (0) | 4 (1˜5) | 4 (1˜5) |
| COc1ccc(C(=O)NCc2cc(CCl)no2)cc1 [III-3, N-[(3-chloromethyl-5-isoxazolyl)methyl]-4-methoxy benzamide] | 2 (11˜20) | 4 (1˜5) |  |  |
| Cc1ccc(-c2cc(CNC(=O)N3CCOCC3)on2)cc1 [III-204, N-{[3-(4-tolyl)-5-isoxazolyl]methyl}-4-morpholinecarboxamide] |  | 4 (1˜5) | 2 (11˜20) | 2 (11˜20) |
| Cc1ccc(-c2cc(CNC(=O)C3CCCCC3)on2)cc1 [III-222, N-{[3-(4-tolyl)-5-isoxazolyl]methyl}cyclohexanecarboxamide] |  | 4 (1˜5) | 3 (6˜10) | 2 (11˜20) |
| O=C(NCc1cc(CCl)no1)c1ccccc1 [III-226, N-[(3-chloromethyl-5-isoxazolyl)methyl]benzamide] | 3 (6˜10) | 4 (1˜5) |  |  |
| O=C(NCc1cc(CCl)no1)C1CCCCC1 [III-233, N-[(3-chloromethyl-5-isoxazolyl)methyl]cyclohexanecarboxamide] | 2 (11˜20) |  |  |  |
| O=C(NCc1cc(CCl)no1)c1ccc(Cl)cc1 [III-254, N-[(3-chloromethyl-5-isoxazolyl)methyl]-4-chlorobenzamide] | 5 (0) | 3 (6˜10) |  |  |
| O=C(NCc1cc(CCl)no1)c1ccc(Br)cc1 [III-260, N-[(3-chloromethyl-5-isoxazolyl)methyl]-4-bromobenzamide] | 3 (6˜10) |  |  |  |
| O=C(NCc1cc(CCl)no1)c1ccc(C(F)(F)F)cc1 [III-261, N-[(3-chloromethyl-5-isoxazolyl)methyl]-4-trifluoromethylbenzamide] | 2 (11˜20) |  |  |  |
| O=C(C=Cc1ccccc1)NCc1cc(CCl)no1 [III-266, N-[(3-chloromethyl-5-isoxazolyl)methyl]-β-phenylacrylamide] | 1 (21˜41) |  |  |  |
| O=C(NCc1cc(CCl)no1)c1ccc2ccccc2c1 [III-267, N-[(3-chloromethyl-5-isoxazolyl)methyl]-2-naphthalenecarboxamide] | 5 (0) | 5 (0) |  |  |
| O=C(NCc1cc(CCl)no1)c1cccc2ccccc12 [III-268, N-[(3-chloromethyl-5-isoxazolyl)methyl]-1-naphthalenecarboxamide] | 0 (41 or more) |  |  |  |
| CCc1ccc(C(=O)NCc2cc(CCl)no2)cc1 [III-269, N-[(3-chloromethyl-5-isoxazolyl)methyl]-4-ethylbenzamide] | 5 (0) | 5 (0) |  |  |
| O=C(NCc1cc(CCl)no1)c1ccc(OCCl)cc1 [III-270, N-[(3-chloromethyl-5-isoxazolyl)methyl]-4-chloromethyloxybenzamide] | 2 (11˜20) |  |  |  |
| O=C(NCc1cc(CCl)no1)c1ccc(Cl)cc1Cl [III-271, N-[(3-chloromethyl-5-isoxazolyl)methyl]-2,4-dichlorobenzamide] | 1 (21˜41) |  |  |  |
| O=C(NCc1cc(CCl)no1)c1ccc(Cl)c(Cl)c1 [III-272, N-[(3-chloromethyl-5-isoxazolyl)methyl]-3,4-dichlorobenzamide] | 5 (0) | 3 (6˜10) |  |  |
| Cc1ccccc1C(=O)NCc1cc(CCl)no1 [III-273, N-[(3-chloromethyl-5-isoxazolyl)methyl]-2-methylbenzamide] | 0 (41 or more) |  |  |  |
| Cc1cccc(C(=O)NCc2cc(CCl)no2)c1 [III-274, N-[(3-chloromethyl-5-isoxazolyl)methyl]-3-methylbenzamide] | 4 (1˜5) | 2 (11˜20) |  |  |
| O=C(NCc1cc(CCl)no1)c1cccc(Cl)c1 [III-277, N-[(3-chloromethyl-5-isoxazolyl)methyl]-3-chlorobenzamide] | 4 (1˜5) | 2 (11˜20) |  |  |
| O=C(NCc1cc(CCl)no1)c1ccc([N+](=O)[O-])cc1 [III-278, N-[(3-chloromethyl-5-isoxazolyl)methyl]-4-nitrobenzamide] | 4 (1˜5) | 2 (11˜20) |  |  |
| CS(=O)(=O)c1ccc(C(=O)NCc2cc(CCl)no2)c(Cl)c1 [III-279, N-[(3-chloromethyl-5-isoxazolyl)methyl]-2-chloro-4-methanesulfonylbenzamide] | 5 (0) | 3 (6˜10) |  |  |
